Several values for one entry are separate records, joined by “and”; a condition that tells them apart may be missing. Equal entries are not always repeated.
Details: for vapor or sublimation pressure: Liquid, Closed cell (Static) method; for speed of sound: Gas, Cylindrical cavity resonance method

CC(C)C [2-methylpropane]
Details	vapor or sublimation pressure
258.92 K	91.82 kPa
264.24 K	112.99 kPa
265.67 K	119.32 kPa
267.2 K	126.35 kPa
273 K	156 kPa
273.15 K	156.85 kPa
275.31 K	169.22 kPa
278.94 K	191.71 kPa
280 K	198.68 kPa
281.24 K	207.12 kPa
282.81 K	218.08 kPa
284.02 K	226.9 kPa
285.82 K	240.51 kPa
287.25 K	251.7 kPa
288.67 K	263.24 kPa
290 K	274.38 kPa
291.96 K	291.5 kPa
291.99 K	291.68 kPa
293.5 K	305.47 kPa
294.79 K	317.56 kPa
296.3 K	332.18 kPa
299.97 K	369.83 kPa
301.05 K	381.52 kPa
302.76 K	400.6 kPa
304.46 K	420.14 kPa
305.97 K	438.06 kPa and 438.12 kPa
307.39 K	455.55 kPa
308.82 K	473.64 kPa
310 K	488.84 kPa
312.11 K	516.99 kPa
314.51 K	550.49 kPa
314.52 K	550.72 kPa
316.61 K	581.22 kPa
320 K	633.44 kPa
322 K	665.79 kPa
324.13 K	701.6 kPa
326 K	734.19 kPa and 734.22 kPa
326.58 K	744.59 kPa
328 K	770.36 kPa
328.63 K	781.99 kPa
330 K	807.67 kPa
332 K	846.32 kPa
332.15 K	849.38 kPa
334 K	886.42 kPa
334.71 K	900.88 kPa
338.87 K	989.76 kPa
342 K	1060.5 kPa
342.57 K	1073.8 kPa
344 K	1107.8 kPa
344.84 K	1128.1 kPa
347.48 K	1193.6 kPa
350 K	1258.8 kPa
354.89 K	1392.5 kPa
357.13 K	1457.2 kPa
360 K	1543.1 kPa
362.41 K	1618.3 kPa
364.65 K	1690.7 kPa
367.12 K	1773.1 kPa
370 K	1872.6 kPa
373.25 K	1990.5 kPa
375.82 K	2087.2 kPa
377.95 K	2170.2 kPa
380 K	2252.2 kPa
382.69 K	2363.4 kPa
385.14 K	2468.3 kPa
387.96 K	2593.6 kPa
390 K	2687.2 kPa
390.02 K	2688.3 kPa
392.64 K	2812.8 kPa
392.7 K	2815.5 kPa
394.37 K	2897.1 kPa
394.77 K	2917.1 kPa
397.49 K	3055 kPa
399.62 K	3166.9 kPa
400 K	3187.2 kPa
400.09 K	3191.9 kPa
400.19 K	3197.4 kPa
402.45 K	3320.9 kPa
402.46 K	3321.8 kPa
403.93 K	3404.5 kPa
404.71 K	3449.2 kPa
405 K	3465.7 kPa
405.99 K	3523.6 kPa

Details	speed of sound [m/s]
270 K, 54.63 kPa	203.09
270 K, 68.26 kPa	202.24
270 K, 75.99 kPa	201.75
270 K, 86.24 kPa	201.09
270 K, 94.7 kPa	200.54
270 K, 103.06 kPa	200
270 K, 111.76 kPa	199.42
280 K, 52.41 kPa	206.99
280 K, 62.45 kPa	206.43
280 K, 70.73 kPa	205.97
280 K, 82.68 kPa	205.28
280 K, 94.96 kPa	204.58
280 K, 108.81 kPa	203.77
280 K, 121.29 kPa	203.03
280 K, 133.05 kPa	202.32
280 K, 145.5 kPa	201.57
290 K, 58.49 kPa	210.38
290 K, 78.62 kPa	209.35
290 K, 97.12 kPa	208.38
290 K, 116.17 kPa	207.38
290 K, 139.15 kPa	206.14
290 K, 147.23 kPa	205.68
290 K, 158.57 kPa	205.07
290 K, 161.39 kPa	204.9
290 K, 173.83 kPa	204.22
290 K, 177.47 kPa	204
290 K, 193.67 kPa	203.09
300 K, 37.47 kPa	214.93
300 K, 57.39 kPa	214.01
300 K, 80.89 kPa	212.92
300 K, 107.72 kPa	211.65
300 K, 127.82 kPa	210.67
300 K, 150.12 kPa	209.58
300 K, 168.57 kPa	208.67
300 K, 201.3 kPa	207
300 K, 235.37 kPa	205.23
310 K, 45.64 kPa	218.03
310 K, 76.78 kPa	216.71
310 K, 107.37 kPa	215.4
310 K, 141.66 kPa	213.88
310 K, 178.43 kPa	212.23
310 K, 212.65 kPa	210.65
310 K, 247.33 kPa	209.01
310 K, 299.72 kPa	206.46
320 K, 57.93 kPa	220.96
320 K, 83.1 kPa	219.97
320 K, 109.17 kPa	218.94
320 K, 159.3 kPa	216.91
320 K, 192.01 kPa	215.56
320 K, 262.64 kPa	212.56
320 K, 289.64 kPa	211.37
320 K, 343.58 kPa	208.94
320 K, 383.31 kPa	207.1
330 K, 39.62 kPa	224.99
330 K, 69.47 kPa	223.92
330 K, 107.25 kPa	222.55
330 K, 151.31 kPa	220.92
330 K, 195.14 kPa	219.27
330 K, 246.95 kPa	217.27
330 K, 297.38 kPa	215.27
330 K, 339.74 kPa	213.55
330 K, 422.84 kPa	210.06
330 K, 480.1 kPa	207.54
